Test results published in US7253191B2, “2-thio-substituted imidazole derivatives and the use thereof in the pharmaceutical industry” (Merckle GmbH, priority 2001, dated 2007).

Legend:
TNF-α = assay: In vitro test of cytokine release: LPS-stimulated human whole blood / PBMCs, TNFα by ELISA; type: cell-based; conditions: Table 1; for IC50: LPS (E.coli 026:B6) stimulation 4 hours, table does not say whole blood or PBMCs; for TNF-α, value given in %: concentration not given
Method: (§1) They may be administered in one individual dose or in a plurality of doses. The activity spectrum of the compounds as inhibitors of cytokine release was examined using the test systems below, as described by C. Donat and S. Laufer in Arch. Pharm. Pharm. […] 1, 1-40, 2000.
(§2) The reaction is stopped by placing the samples on ice, adding DPBS buffer and then centrifuging at 1000*g for 15 min. The amount of IL-1β and TNFα in the plasma supernatant is then determined by ELISA.
(§3) The cells are washed twice with DPBS buffer, resuspended in macrophage SFM medium and adjusted to a cell count of 1*10^6 cells/ml.
(§4) The reaction is stopped by placing the samples on ice, adding DPBS buffer and then centrifuging at 15 880*g for 12 min. The amount of IL-1β and TNFα in the plasma supernatant is then determined by ELISA.

IL-1β = assay: In vitro test of cytokine release: LPS-stimulated human whole blood / PBMCs, IL-1β by ELISA; type: cell-based; conditions: Table 1; for IC50: LPS (E.coli 026:B6) stimulation 4 hours, table does not say whole blood or PBMCs
Method: as §1, §2, §3, §4

| Compound | IC50 (TNF-α) [µM] | IC50 (IL-1β) [µM] | further results |
| --- | --- | --- | --- |
| 1-Dimethylaminophenyl-4-(4-fluorophenyl)-5-(4-pyridyl)-2-thioimidazole [Example 9] | 15 | 1.8 |  |
| 4-(4-Fluorophenyl)-2-(4-methylsulfonyl)benzylthio-1-N-morpholinoethyl-5-(4-pyridyl)imidazole [Example 44] | 12 | 1.4 |  |
| Cn1c(S)nc(-c2ccc(F)cc2)c1-c1ccncc1 [Example 1, 4-(4-fluorophenyl)-1-methyl-5-(4-pyridyl)-2-thioimidazole] | 19 | 3.6 |  |
| CCn1c(-c2ccncc2)c(-c2ccc(F)cc2)[nH]c1=S [Example 2, 1-Ethyl-4-(4-fluorophenyl)-5-(4-pyridyl)-2-thioimidazole] | 41 | 1.3 |  |
| CCCn1c(-c2ccncc2)c(-c2ccc(F)cc2)[nH]c1=S [Example 3, 4-(4-Fluorophenyl)-1-n-propyl-5-(4-pyridyl)-2-thioimidazole] | 32 | 2.4 |  |
| CC(C)n1c(-c2ccncc2)c(-c2ccc(F)cc2)[nH]c1=S [Example 4] |  | 2.2 | TNF-α, value given in % (TNF-α): 46% |
| Fc1ccc(-c2[nH]c(=S)n(C3CCCCC3)c2-c2ccncc2)cc1 [Example 5, 1-Cyclohexyl-4-(4-fluorophenyl)-5-(4-pyridyl)-2-thioimidazole] | 33 | 5.4 |  |
| Fc1ccc(-c2[nH]c(=S)n(-c3ccccc3)c2-c2ccncc2)cc1 [Example 7, 4-(4-Fluorophenyl)-1-phenyl-5-(4-pyridyl)-2-thioimidazole] | 37 | 2.3 |  |
| Fc1ccc(-c2[nH]c(=S)n(Cc3ccccc3)c2-c2ccncc2)cc1 [Example 8, 1-Benzyl-4-(4-fluorophenyl)-5-(4-pyridyl)-2-thioimidazole] | 20 | 1 |  |
| Fc1ccc(-c2[nH]c(=S)n(-c3cccnc3)c2-c2ccncc2)cc1 [Example 10, 4-(4-Fluorophenyl)-1-(3-pyridyl)-5-(4-pyridyl)-2-thioimidazole] |  | 8 | TNF-α, value given in % (TNF-α): 42% |
| CN(C)CCn1c(-c2ccncc2)c(-c2ccc(F)cc2)[nH]c1=S [Example 11, 1-Dimethylaminoethyl-4-(4-fluorophenyl)-5-(4-pyridyl)-2-thioimidazole] |  | 12 | TNF-α, value given in % (TNF-α): 19% |
| CC1(C)CC(n2c(-c3ccncc3)c(-c3ccc(F)cc3)[nH]c2=S)CC(C)(C)N1 [Example 12, 4-(4-Fluorophenyl)-5-(4-pyridyl)-1-(2,2,6,6-tetramethylpiperidin-4-yl)-2-thioimidazole] | 45 | 1.6 |  |
| Fc1ccc(-c2[nH]c(=S)n(CCCN3CCOCC3)c2-c2ccncc2)cc1 [Example 14, 4-(4-Fluorophenyl)-1-(3-N-morpholinopropyl)-5-(4-pyridyl)-2-thioimidazole] | 100 | 18 |  |
| Fc1ccc(-c2[nH]c(=S)n(CCN3CCOCC3)c2-c2ccncc2)cc1 [Example 16, 4-(4-Fluorophenyl)-1-N-morpholinoethyl-5-(4-pyridyl)-2-thioimidazole] |  |  | TNF-α, value given in % (TNF-α): 34%; IL-1β, value given in % (IL-1β; concentration not given): 44% |
| OCCCn1c(-c2ccncc2)c(-c2ccc(F)cc2)[nH]c1=S [Example 17, 4-(4-Fluorophenyl)-1-(3-hydroxypronyl)-5-(4-pyridyl)-2-thioimidazole] |  | 7.3 | TNF-α, value given in % (TNF-α): 49% |
| Fc1ccc(-c2[nH]c(=S)n(C3CCN(Cc4ccccc4)CC3)c2-c2ccncc2)cc1 [Example 18] | 38 | 5.8 |  |
| CSc1nc(-c2ccc(F)cc2)c(-c2ccncc2)n1C [Example 20] | 2.5 | 0.45 |  |
| CCCn1c(SC)nc(-c2ccc(F)cc2)c1-c1ccncc1 [Example 21, 4-(4-Fluorophenyl)-2-methylthio-1-n-propyl-5-(4-pyridyl)imidazole] |  |  | IC50 (TNF-α; Homo sapiens): 1.3 µM; IC50 (IL-1β; Homo sapiens): 0.36 µM |
| CSc1nc(-c2ccc(F)cc2)c(-c2ccncc2)n1C1CC1 [Example 22, 1-Cyclopropyl-4-(4-fluorophenyl)-2-methylthio-5-(4-pyridyl)imidazole] |  |  | IC50 (TNF-α; Homo sapiens): 1.1 µM; IC50 (IL-1β; Homo sapiens): 0.34 µM |
| CSc1nc(-c2ccc(F)cc2)c(-c2ccncc2)n1CCCN1CCOCC1 [Example 24, 4-(4-Fluorophenyl)-2-methylthio-1-N-morpholinopropyl-5-(4-pyridyl)-imidazole] |  |  | IC50 (TNF-α; Homo sapiens): 2.7 µM; IC50 (IL-1β; Homo sapiens): 1 µM |

| Compound | IC50 (TNF-α) [µM] | IC50 (IL-1β) [µM] | further results |
| --- | --- | --- | --- |
| CSc1nc(-c2ccc(F)cc2)c(-c2ccncc2)n1C1CC(C)(C)NC(C)(C)C1 [Example 25, 4-(4-Fluorophenyl)-2-methylthio-5-(4-pyridyl)-1-(2,2,6,6-tetramethyl-piperidin-4-yl)imidazole] |  |  | IC50 (TNF-α; Homo sapiens): 16 µM; IC50 (IL-1β; Homo sapiens): 0.85 µM |
| CCn1c(SCc2ccc(S(C)(=O)=O)cc2)nc(-c2ccc(F)cc2)c1-c1ccncc1 [Example 27, 1-Ethyl-4-(4-fluorophenyl)-2-(4-methylsulfonyl)benzylthio-5-(4-pyridyl)-imidazole] | 4.1 | 0.95 |  |
| CCCn1c(SCc2ccccc2)nc(-c2ccc(F)cc2)c1-c1ccncc1 [Example 28, 2-Benzylthio-4-(4-fluorophenyl)-1-n-propyl-5-(4-pyridyl)imidazole] |  |  | IC50 (TNF-α; Homo sapiens): 29 µM; IC50 (IL-1β; Homo sapiens): 0.65 µM |
| CCCn1c(SCc2ccc(Cl)cc2)nc(-c2ccc(F)cc2)c1-c1ccncc1 [Example 29, 2-(4-Chlorobenzyl)thio-4-(4-fluorophenyl)-1-n-propyl-5-(4-pyridyl)-imidazole] |  |  | IC50 (TNF-α; Homo sapiens): 62 µM; IC50 (IL-1β; Homo sapiens): 1.3 µM |
| CCCn1c(SCc2ccc(C)cc2)nc(-c2ccc(F)cc2)c1-c1ccncc1 [Example 30, 4-(4-Fluorophenyl)-2-(4-methylbenzyl)thio-1-n-propyl-5-(4-pyridyl)-imidazole] |  |  | IC50 (TNF-α; Homo sapiens): 22 µM; IC50 (IL-1β; Homo sapiens): 1.3 µM |
| CCCn1c(SCc2ccc(SC)cc2)nc(-c2ccc(F)cc2)c1-c1ccncc1 [Example 31, 4-(4-Fluorophenyl)-2-(4-methylthio)benzylthio-1-n-propyl-5-(4-pyridyl)-imidazole] |  | 4.7 | TNF-α, value given in % (TNF-α): 35% |
| CCCn1c(SCc2ccc([S+](C)[O-])cc2)nc(-c2ccc(F)cc2)c1-c1ccncc1 (stereo not drawn) [Example 32, 4-(4-Fluorophenyl)-2-(4-methylsulfinyl)benzylthio-1-n-propyl-5-(4-pyridyl)imidazole] | 24 | 1.6 |  |
| CCCn1c(SCc2ccc(S(C)(=O)=O)cc2)nc(-c2ccc(F)cc2)c1-c1ccncc1 [Example 33, 4-(4-Fluorophenyl)-2-(4-methylsulfonyl)benzylthio-1-n-propyl-5-(4-pyridyl)imidazole] | 6.8 | 0.72 |  |
| CC(C)n1c(SCc2ccc(Cl)cc2)nc(-c2ccc(F)cc2)c1-c1ccncc1 [Example 34, 2-(4-Chlorobenzyl)thio-4-(4-fluorophenyl)-1-isopropyl-5-(4-pyridyl)-imidazole] |  |  | IC50 (TNF-α; Homo sapiens): 53 µM; IC50 (IL-1β; Homo sapiens): 5.3 µM |
| CC(C)n1c(SCc2ccc(S(C)(=O)=O)cc2)nc(-c2ccc(F)cc2)c1-c1ccncc1 [Example 35, 4-(4-Fluorophenyl)-2-(4-methylsulfonyl)benzylthio-1-isopropyl-5-(4-pyridyl)imidazole] | 2.7 | 1.5 |  |
| CS(=O)(=O)c1ccc(CSc2nc(-c3ccc(F)cc3)c(-c3ccncc3)n2C2CCCCC2)cc1 [Example 39, 1-Cyclohexyl-4-(4-fluorophenyl)-2-(4-methylsulfonyl)benzylthio-5-(4-pyridyl)imidazole] | 13 | 1.8 |  |
| CS(=O)(=O)c1ccc(CSc2nc(-c3ccc(F)cc3)c(-c3ccncc3)n2-c2ccccc2)cc1 [Example 40, 4-(4-Fluorophenyl)-2-(4-methylsulfonyl)benzylthio-1-phenyl-5-(4-pyridyl)imidazole] | 3.4 | 1.3 |  |
| CS(=O)(=O)c1ccc(CSc2nc(-c3ccc(F)cc3)c(-c3ccncc3)n2Cc2ccccc2)cc1 [Example 41, 1-Benzyl-4-(4-fluorophenyl)-2-(4-methylsulfonyl)benzylthio-5-(4-pyridyl)-imidazole] | 1 | 0.36 |  |
| Fc1ccc(-c2nc(SCc3ccccc3)n(CCN3CCOCC3)c2-c2ccncc2)cc1 [Example 42, 2-Benzylthio-4-(4-fluorophenyl)-1-N-morpholinoethyl-5-(4-pyridyl)-imidazole] |  |  | IC50 (TNF-α; Homo sapiens): 11 µM; IC50 (IL-1β; Homo sapiens): 1.3 µM |
| Fc1ccc(-c2nc(SCc3ccccc3)n(CCCN3CCOCC3)c2-c2ccncc2)cc1 [Example 43] | 5.4 | 0.89 |  |
| C[S+]([O-])c1ccc(CSc2nc(-c3ccc(F)cc3)c(-c3ccncc3)n2CCN2CCOCC2)cc1 (stereo not drawn) [Example 45, 4-(4-Fluorophenyl)-2-(4-methylsulfinyl)benzylthio-1-N-morpholinoethyl-5-(4-pyridyl)imidazole] | 12 | 2.4 |  |
| CC1(C)CC(n2cc(-c3ccc(F)cc3)nc2SCc2ccccc2)CC(C)(C)N1 [Example 46, 2-Benzylthio-4-(4-fluorophenyl)-1-(2,2,6,6-tetramethylpiperidin-4-yl)-imidazole] |  |  | IC50 (TNF-α; Homo sapiens): 12 µM; IC50 (IL-1β; Homo sapiens): 0.87 µM |
| Cn1c(SCCN2CCOCC2)nc(-c2ccc(F)cc2)c1-c1ccncc1 [Example 47] | 28 | 1.7 |  |
| Cn1c(S/C=C\c2ccccc2)nc(-c2ccc(F)cc2)c1-c1ccncc1 [Example 48, 1-cis-Phenylethenylthio-4-(4-fluorophenyl)-1-methyl-5-(4-pyridyl)-imidazole] |  |  | IC50 (TNF-α; Homo sapiens): 22 µM; IC50 (IL-1β; Homo sapiens): 1.7 µM |
